# Reference: US12226401B2, “Molecular genetic approach to treatment and diagnosis of alcohol and drug dependence” (priority 2010, dated 2025)
# Tested on: alcohol dependent individuals
# Experiment: Randomized, double-blind, placebo-controlled, 12-week clinical trial of ondansetron vs placebo in alcohol dependent individuals by genotype: drinks per drinking day (DDD)
# Format: in vivo, human
# Details: for Least Squares Mean of Drinks per Drinking Days, Estimated Mean: Table 4B; for Least Squares Mean Difference, Drinks per Drinking Days, OND vs. Placebo: all patients (treatment main effect); for Log mean Drinks/Drinking Day: natural log
# Description: Two hundred and seventy eight male and female alcohol dependent individuals were entered into a randomized, double-blind, placebo-controlled, 12-week clinical trial. These individuals were divided into TT vs. […] The polymorphisms in 3''-UTR region of a gene may affect mRNA expression levels by altering their stability. […] Data was transformed to its natural log to correct for skewness. […] In total, ten SNPs in 5HT3a and nine SNPs in 5HT3b genes were analyzed in this study: […]
smiles,measurement,setting,value
"Cc1nccn1CC1CCc2c(c3ccccc3n2C)C1=O (stereo not drawn) [ondansetron, 9-methyl-3-[(2-methyl-1H-imidazol-1-yl)methyl]-1,2,3,9-tetrahydrocarbazol-4-one]","Least Squares Mean, Drinks per Drinking Days",RS17614942 CC,6.03
same,"Least Squares Mean, Drinks per Drinking Days",RS17614942 CC/AA,6.09
same,"Estimate, OND vs. Placebo, drinks per drinking days (DDD)","TT + AA (RS1042173, RS1176719)",−7.12 DDD
same,"Estimate, OND vs. Placebo, drinks per drinking days (DDD)","TT + AC (RS1042173, RS17614942)",−3.37 DDD
same,"Estimate, OND vs. Placebo, drinks per drinking days (DDD)","TT + AG (RS1042173, RS1150226)",−2.00 DDD
same,"Estimate, OND vs. Placebo, drinks per drinking days (DDD)","TT + AG + AC (RS1042173, RS1150226, RS17614942)",−2.24 DDD
same,"Estimate, OND vs. Placebo, drinks per drinking days (DDD)","TT + GG (RS1042173, RS1176713)",−6.42 DDD
same,"Estimate, OND vs. Placebo, drinks per drinking days (DDD)","TT or AA or AC (RS1042173, RS1176719, RS17614942)",−1.08 DDD
same,"Estimate, OND vs. Placebo, drinks per drinking days (DDD)","TT or AC (RS1042173, RS17614942)",−1.07 DDD
same,"Estimate, OND vs. Placebo, drinks per drinking days (DDD)","TT or AG (RS1042173, RS1150226)",−1.02 DDD
same,"Estimate, OND vs. Placebo, drinks per drinking days (DDD)","TT or AG or AC (RS1042173, RS1150226, RS17614942)",−0.99 DDD
same,"Estimate, OND vs. Placebo, drinks per drinking days (DDD)","TT or AG or GG (RS1042173, RS1150226, RS1176713)",−1.12 DDD
same,"Estimate, OND vs. Placebo, drinks per drinking days (DDD)","TT or GG (RS1042173, RS1176713)",−1.02 DDD
same,"Estimate, OND vs. Placebo, drinks per drinking days (DDD)","TT or GG or AC (RS1042173, RS1176713, RS17614942)",−1.12 DDD
same,"Least Squares Mean Difference, Estimated Mean Difference, AG vs. GG/AA","Table 3G, among OND-treated subjects, AG vs. GG/AA genotype",−1.90
same,"Least Squares Mean of Drinks per Drinking Days, Estimated Mean","Others (AA/GG and AA/CC), n = 112",6.12
same,"Least Squares Mean of Drinks per Drinking Days, Estimated Mean","RS1150226 AG or RS17614942 AC carriers, n = 23",4.19
same,"Least Squares Mean of Drinks per Drinking Days, Estimated Mean","all OND subjects, RS1150226 (AG) or RS17614942 (AC) analysis",5.16
same,"Least Squares Mean Difference between Treatment and Placebo, Estimated Mean Difference","Table 4C, OND vs. Placebo among AG or/and AC (RS1150226 AG, RS17614942 AC)",−2.12
same,"Least Squares Mean Difference between Treatment and Placebo, Estimated Mean Difference","Table 4C, OND vs. Placebo, all genotypes (main effect)",−0.99
same,"Least Squares Mean Difference, Estimated Mean Difference, (AG or AC) vs. Others","Table 4C, among OND-treated subjects, (AG or AC) vs. Others",−1.91
same,"Least Squares Mean, Drinks per Drinking Days","all OND patients, model Comb (LL + TT or AC or AG) vs Others",5.32
same,"Least Squares Mean, Drinks per Drinking Days","all OND patients, model RS1150226 (GG, AG/AA)",5.15
same,"Least Squares Mean, Drinks per Drinking Days","all OND patients, model RS1150226 (GG/AA, AG)",5.13
same,"Least Squares Mean, Drinks per Drinking Days","all OND patients, model RS17614942 (CC, AC/AA)",4.96
same,"Least Squares Mean, Drinks per Drinking Days","all OND patients, model RS17614942 (CC/AA, AC)",4.98
same,DDD reductions with OND,"all four variants (LL, TT, AG, AC)",more than 4 DDD
same,"Least Squares Mean Difference, Drinks per Drinking Days, OND vs. Placebo","model RS17614942 (CC, AC/AA)",−1.20
same,"Least Squares Mean Difference, Drinks per Drinking Days, OND vs. Placebo","model RS17614942 (CC/AA, AC)",−1.30
same,"Drinks per Drinking Days, Least Squares Estimated Mean Difference","among AC/AA: OND vs. Placebo, model RS17614942",−2.04
same,"Drinks per Drinking Days, Least Squares Estimated Mean Difference","among AC/AA: OND vs. Placebo, model RS17614942 and 5-HTTLPR",−2.13
same,"Drinks per Drinking Days, Least Squares Estimated Mean Difference","among CT/TT: OND vs. Placebo, model RS4938056 and 5-HTTLPR",−0.81
same,"Drinks per Drinking Days, Least Squares Estimated Mean Difference","among LL: OND vs. Placebo, model 5-HTTLPR and RS1062613",−1.29
same,"Drinks per Drinking Days, Least Squares Estimated Mean Difference","among LL: OND vs. Placebo, model 5-HTTLPR and RS1150226",−1.47
same,"Drinks per Drinking Days, Least Squares Estimated Mean Difference","among LL: OND vs. Placebo, model RS17614942 and 5-HTTLPR",−1.86
same,"Drinks per Drinking Days, Least Squares Estimated Mean Difference","among OND: AC/AA vs. CC, model RS17614942",−1.60
same,"Drinks per Drinking Days, Least Squares Estimated Mean Difference","among OND: AC/AA vs. CC, model RS17614942 and 5-HTTLPR",−1.45
same,"Drinks per Drinking Days, Least Squares Estimated Mean Difference","among OND: AG/AA vs. GG, model 5-HTTLPR and RS1150226",−1.25
same,"Drinks per Drinking Days, Least Squares Estimated Mean Difference","among OND: AG/AA vs. GG, model RS1150226",−1.47
same,"Drinks per Drinking Days, Least Squares Estimated Mean Difference","among OND: CT/TT vs. CC, model RS4938056",−1.24
same,"Drinks per Drinking Days, Least Squares Estimated Mean Difference","among OND: CT/TT vs. CC, model RS4938056 and 5-HTTLPR",−1.13
same,"Drinks per Drinking Days, Least Squares Estimated Mean Difference","among OND: LL + CT/TT vs. Others, simplified model",−1.64
same,"Drinks per Drinking Days, Least Squares Estimated Mean Difference","among OND: LL vs. LS/SS, model 5-HTTLPR and RS1062613",−1.39
same,"Drinks per Drinking Days, Least Squares Estimated Mean Difference","among OND: LL vs. LS/SS, model 5-HTTLPR and RS1150226",−1.27
same,"Drinks per Drinking Days, Least Squares Estimated Mean Difference","among OND: LL vs. LS/SS, model RS4938056 and 5-HTTLPR",−1.37
same,"Drinks per Drinking Days, Least Squares Estimated Mean Difference","among OND: LL vs. LS/SS, model RS17614942 and 5-HTTLPR",−1.33
same,"Drinks per Drinking Days, Least Squares Estimated Mean Difference","among OND: TC/CC vs. TT, model 5-HTTLPR and RS1062613",−1.05
same,"Drinks per Drinking Days, Least Squares Estimated Mean Difference","among OND: TC/CC vs. TT, model RS1062613",−1.06
same,"Drinks per Drinking Days, Least Squares Estimated Mean Difference","among TC/CC: OND vs. Placebo, model 5-HTTLPR and RS1062613",−1.10
same,"Drinks per Drinking Days, Least Squares Estimated Mean Difference","among TC/CC: OND vs. Placebo, model RS1062613",−0.90
same,"DDD reduction, OND compared to placebo","any one of three variants: 5-HTTLPR [LL], RS1150226 [AG], RS17614942 [AC]",at least 1.4 DDD
same,"DDD reduction, OND compared to placebo","any two of the three variants (LL, AG, AC)",at least 2.4 DDD
same,DDD reductions with OND,"any two of three variants: 5-HTTLPR (LL), RS1042173 (TT), RS1176713 (GG)",at least 2 DDD
same,DDD reductions with OND,either 5-HTTLPR (LL) or RS1176713 (GG),at least 1.4 DDD
same,DDD reductions with OND,"either one or two or three or four of the four variants (LL, TT, AG, AC)",at least 0.9 DDD
same,DDD reductions with OND,"either three of the four variants (LL, TT, AG, AC)",more than 2 DDD
same,DDD reductions with OND,"either two of four variants: 5-HTTLPR (LL), RS1042173 (TT), RS1150226 (AG), RS17614942 (AC)",at least 2 DDD
same,"DDD reductions, OND compared to placebo","one or two of the three variants (LL, AG, AC)",about 1.4 DDD
same,Response to Ondansetron treatment,"one or two or three of 5-HTTLPR [LL], RS1150226 [AG], RS17614942 [AC], 120 patients",seemed to respond
same,"DDD reductions, OND compared to placebo","one or two or three of the three variants (LL, AG, AC)",at least 1.4 DDD
same,Response to OND treatment,"one or two or three or four of 5-HTTLPR (LL), RS1042173 (TT), RS1176719 (AA), RS17614942 (AC)",likely to respond
same,DDD reductions with OND,"one, or two or three of the three variants (LL, TT, RS1176713 GG)",at least 0.9 DDD
same,"DDD reduction, OND compared with placebo groups","patients who had LL+TT or RS17614942 (AC) or RS1150226 (AG), 84 of 273 patients",at least 1.75 DDD
same,"Estimate, OND vs. Placebo, drinks per drinking days (DDD)",patients with 5-HTTLPR (LL),−1.41 DDD
same,"DDD reductions, OND compared to placebo",patients with either 5-HTTLPR (LL) or RS1150226 (AG) or RS17614942 (AC),at least 1.4 DDD
same,Log mean Drinks/Drinking Day,printed 'TT/GG and group' (rs1042173),1.68±0.07 Drinks/Drinking Day
same,Estimated mean DDD difference for OND vs. placebo,"regardless of rs17614942 genotypes, 5HT3b cohort",−1.15
same,"Log mean difference in Drinks/Drinking Day, TTond vs TG/GG ond","rs1042173, among ondansetron recipients, 95% CI -0.53 to -0.13, p=0.002",−0.33
same,"Reducing severe drinking vs placebo (Log Drinks/Drinking day, mixed model)","rs1042173 TT genotype, ondansetron 4 mcg/kg, p=0.028",more beneficial than placebo
same,Log mean Drinks/Drinking Day,rs1042173 TT group that received ondansetron 4 mcg/kg,1.36±0.10 Drinks/Drinking Day
same,"Reduction of DDD by ondansetron, C-carriers compared with TT subjects",rs1062613 (5HT3a),1.17 sd
same,"Reduction of DDD by ondansetron, AG/AA compared to GG subjects",rs1150226 (5HT3a),1.74 sd
same,"Reduction of DDD by ondansetron, T-carriers compared with CC subjects",rs4938056 (5HT3b),1.30 sd
same,"Reduction in DDD, AC/AA treated with ondansetron compared to CC subjects",rs17614942 (5HT3b),1.97 sd
same,"Least Squares Mean Difference, Drinks per Drinking Days, AG/AA vs. GG","second AG/AA vs. GG line printed under Among OND, RS1150226",−0.98
same,"DDD reduction, OND compared to placebo","the three variants (LL, AG, AC)",at least 4 DDD
same,DDD reductions with OND,"the three variants (LL, TT, RS1176713 GG)",at least 7 DDD
same,Reduction of DDD by ondansetron compared to the placebo,within AC/AA group of rs17614942,2.41 sd
same,Reduction of DDD by ondansetron compared to the placebo,within AG/AA group of rs1150226,1.57 sd
same,"Least square Mean difference in DDD, ondansetron vs placebo",within LL+AC/AA group (5HTTLPR + rs17614942),3.6 sd
same,"Least square Mean difference in DDD, ondansetron vs placebo",within LL+CT/TT group (5HTTLPR + rs4938056),1.74 sd
